These results are taken from ChEMBL document CHEMBL1201862, “PubChem BioAssay data set” (2004).

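Growth conditions: 96-well plates. Treatment: test compound, 48 hours, 5 concentrations. Analysis: linear interpolation between bracketing concentrations; unreached endpoints set to highest concentration. GI50: concentration for 50% inhibition of growth.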 Activity calls are given as the source filed them. Rule as the data show it: active = GI50 up to about 1.1 µM and inactive = higher.

Test systems include 786-0; CCRF-CEM; HCC 2998; HOP-62; IGROV-1; KM12; LOX IMVI; NCI-H460; OVCAR-3; OVCAR-5; RPMI-8226; RXF 393; SF-295; SK-MEL-28; SK-MEL-5; SN12C; SNB-75; TK-10; UACC-62; MDA-N.
Holding throughout (assay): NCI-60 cell line screen, 48 h

With `CNS(=O)(=O)NNS(=O)(=O)c1ccccc1`, the GI50 in the assay with 786-0, in the assay on CCRF-CEM, in the assay with HCC 2998, with HOP-62, in the assay on IGROV-1 and with KM12 was > 100 µM (inactive) each time. For the same compound, the GI50 with LOX IMVI, in the assay on NCI-H460, in the assay with OVCAR-3, in the assay with OVCAR-5, in the assay on RPMI-8226 and in the assay on RXF 393 was > 100 µM (inactive) each time. The GI50 with SF-295, in the assay on SK-MEL-28, with SK-MEL-5, in the assay with SN12C, in the assay with SNB-75 and in the assay with TK-10 was > 100 µM (inactive) throughout. Also, the GI50 with UACC-62 was > 100 µM (inactive).

Turning to `Brc1ccc2c(c1)C1=C(CO2)Cc2ccccc2O1`, the GI50 with 786-0 was 22.7 µM (inactive); in the assay with CCRF-CEM it was 39.4 µM (inactive); in the assay with HCC 2998 it was 17.2 µM (inactive); in the assay with HOP-62, 15.6 µM (inactive); in the assay with IGROV-1, 12.4 µM (inactive); in the assay with KM12, 19 µM (inactive). The GI50 is 17.4 µM (inactive) in the assay on LOX IMVI; 13.2 µM (inactive) with MDA-N; 16.2 µM (inactive) with OVCAR-3; 19.1 µM (inactive) in the assay with OVCAR-5; 18.2 µM (inactive) in the assay on RPMI-8226; 18.1 µM (inactive) in the assay with SF-295. Further, the GI50 in the assay on SK-MEL-5 was 15 µM (inactive); in the assay with SN12C, 18.8 µM (inactive); in the assay with SNB-75, 22 µM (inactive); with TK-10, 20.4 µM (inactive); with UACC-62, 17.2 µM (inactive).

Consider `C[Si](C)(C)OC1CC(=O)OC1n1cc(F)c(=O)[nH]c1=O` (configuration not stated), for which the GI50 is 21.4 µM (inactive) in the assay with 786-0; 18.2 µM (inactive) in the assay on CCRF-CEM; 0.759 µM (active) with HCC 2998; 15.7 µM (inactive) in the assay on HOP-62; > 96.6 µM (inactive) in the assay on IGROV-1; 18.1 µM (inactive) in the assay with KM12. The GI50 with LOX IMVI is 7.94 µM (inactive); in the assay on NCI-H460, 3.72 µM (inactive); with OVCAR-3, 52.8 µM (inactive); in the assay on OVCAR-5, > 89.9 µM (inactive); in the assay with RPMI-8226, 3.14 µM (inactive); in the assay with RXF 393, > 43.6 µM (inactive). The GI50 is > 76.9 µM (inactive) in the assay on SF-295; 15.8 µM (inactive) in the assay on SK-MEL-28; > 100 µM (inactive) in the assay on SK-MEL-5; 40 µM (inactive) in the assay with SN12C; 65.9 µM (inactive) in the assay on SNB-75; > 100 µM (inactive) in the assay on TK-10. Besides, the GI50 in the assay on UACC-62 is 10.8 µM (inactive).

For the compound `C/C1=C\[C@H](C)C[C@H](C)OC(=O)C[C@H](c2ccc(O)cc2)NC(=O)[C@H](Cc2ccc(O)c(I)c2)N(C)C(=O)[C@H](C)NC(=O)[C@@H](C)C1`, the GI50 in the assay with 786-0 is 0.0148 µM (active); in the assay on CCRF-CEM, 0.00497 µM (active); in the assay with HOP-62, 0.0252 µM (active); with IGROV-1, 0.0121 µM (active); with KM12, 0.208 µM (active); in the assay with LOX IMVI, 0.00411 µM (active). The GI50 in the assay on MDA-N was 0.0412 µM (active); in the assay with OVCAR-3 it was 0.0203 µM (active); in the assay on OVCAR-5 it was 0.131 µM (active); with RPMI-8226, 0.0108 µM (active); with SF-295, 0.0778 µM (active); in the assay with SK-MEL-28, 0.0112 µM (active). The GI50 in the assay on SK-MEL-5 is 0.0169 µM (active); in the assay on SN12C it was 0.239 µM (active); with SNB-75, 0.0354 µM (active); with TK-10, 0.0586 µM (active); in the assay with UACC-62 it was 0.0428 µM (active).

As to `C=C1CC(Cn2cc(Br)c(=O)[nH]c2=O)(c2ccc(-c3ccccc3)cc2)OC1=O` (configuration not stated), the GI50 with 786-0 was 1.02 µM (active); with CCRF-CEM it was 0.165 µM (active); with HCC 2998, 1.66 µM (inactive); in the assay with HOP-62, 4.23 µM (inactive); in the assay with IGROV-1 it was 1.4 µM (inactive); with KM12 it was 1.52 µM (inactive). Moreover, the GI50 was 0.582 µM (active) in the assay with LOX IMVI; 0.83 µM (active) in the assay on MDA-N; 6.25 µM (inactive) with NCI-H460; 1.63 µM (inactive) in the assay with OVCAR-3; 4.8 µM (inactive) in the assay on OVCAR-5; 0.128 µM (active) in the assay on RPMI-8226. Moreover, the GI50 is 4.45 µM (inactive) in the assay with SF-295; 0.221 µM (active) in the assay on SK-MEL-28; 1.27 µM (inactive) in the assay on SK-MEL-5; 1.9 µM (inactive) with SN12C; 4.49 µM (inactive) in the assay on SNB-75; 0.432 µM (active) with TK-10. The GI50 with UACC-62 is 1.12 µM (active).

Consider `Nc1nc(N)c2nc(CNc3ccc(C(=O)NC(CCNC(=O)c4ccccc4C(=O)O)C(=O)O)cc3)cnc2n1` (configuration not stated), for which the GI50 is 0.01 µM (active) in the assay with 786-0; 0.01 µM (active) in the assay on CCRF-CEM; < 0.0205 µM (active) in the assay with HOP-62; < 0.0212 µM (active) in the assay on IGROV-1; 0.0168 µM (active) with KM12; 0.01 µM (active) in the assay with LOX IMVI. Further, the GI50 with MDA-N was 0.00785 µM (active); in the assay with NCI-H460 it was 0.01 µM (active); with OVCAR-3, 31.6 µM (inactive); with OVCAR-5, > 100 µM (inactive); in the assay with RPMI-8226 it was 0.083 µM (active); in the assay with SF-295 it was 0.0718 µM (active). The GI50 in the assay on SK-MEL-28 was 4.14 µM (inactive); in the assay with SK-MEL-5, < 0.0286 µM (active); with SN12C, 0.01 µM (active); in the assay on TK-10 it was > 100 µM (inactive); in the assay on UACC-62, < 0.0126 µM (active).

As for `O=C(/C=C/c1ccccc1)/C=C/c1ccccc1`, the GI50 in the assay on 786-0 is 30.3 µM (inactive); in the assay on CCRF-CEM it was 36.9 µM (inactive); with HCC 2998, 37.8 µM (inactive); in the assay with HOP-62, > 100 µM (inactive); in the assay with IGROV-1, 28.1 µM (inactive); with KM12 it was 18 µM (inactive). Further, the GI50 with LOX IMVI was 16.8 µM (inactive); with NCI-H460 it was 27.5 µM (inactive); with OVCAR-3 it was 23 µM (inactive); in the assay on OVCAR-5, > 100 µM (inactive); in the assay on RPMI-8226 it was 39.3 µM (inactive); in the assay with RXF 393, 34.4 µM (inactive). Moreover, the GI50 in the assay on SF-295 is 53.5 µM (inactive); in the assay on SK-MEL-28 it was 18.5 µM (inactive); in the assay on SK-MEL-5 it was 33.1 µM (inactive); in the assay with SN12C, 20.4 µM (inactive); with SNB-75 it was 47.6 µM (inactive); in the assay on TK-10, 58.2 µM (inactive). Further, in the assay on UACC-62, the GI50 is 33 µM (inactive).

With `CCO/C([O-])=C(\C(=O)c1ccccc1)[n+]1c(C)n(C)c2ccccc21`, the GI50 with 786-0, with CCRF-CEM, in the assay with HCC 2998, in the assay with HOP-62, in the assay on IGROV-1 and with KM12 was > 100 µM (inactive) in each case. For the same compound, the GI50 with LOX IMVI, in the assay with NCI-H460, in the assay on OVCAR-3, in the assay with OVCAR-5, in the assay on RPMI-8226 and in the assay on RXF 393 was > 100 µM (inactive) each time. Also, the GI50 in the assay on SF-295, with SK-MEL-28, with SK-MEL-5, in the assay with SNB-75, with TK-10 and with UACC-62 was > 100 µM (inactive) throughout.

For `CC(=O)Oc1ccccc1-c1cc2ccccc2oc1=O`, the GI50 in the assay with 786-0, with CCRF-CEM, in the assay on HCC 2998, in the assay with HOP-62, with KM12 and in the assay with LOX IMVI was > 100 µM (inactive) throughout. Further, the GI50 is > 100 µM (inactive) in the assay with MDA-N; > 100 µM (inactive) with NCI-H460; 22.4 µM (inactive) with OVCAR-3; > 100 µM (inactive) with OVCAR-5; > 100 µM (inactive) in the assay on RPMI-8226; 91.2 µM (inactive) in the assay with SF-295. The GI50 with SK-MEL-28 was > 100 µM (inactive); in the assay on SN12C, > 100 µM (inactive); in the assay with SNB-75 it was 32.8 µM (inactive).

As for `C=C(CCCCC)CN1CCCC1[C@@](C)(O)CC(=O)OCC` (some centres not stated), the GI50 in the assay with 786-0, in the assay on CCRF-CEM, with HCC 2998, in the assay on HOP-62, in the assay with IGROV-1 and in the assay on KM12 was > 100 µM (inactive) each time. The GI50 in the assay on LOX IMVI, in the assay with NCI-H460, in the assay on OVCAR-3, in the assay with OVCAR-5, with RPMI-8226 and in the assay with RXF 393 was > 100 µM (inactive) each time. Moreover, the GI50 with SF-295, in the assay with SK-MEL-28, with SK-MEL-5, in the assay with SN12C, in the assay with SNB-75 and in the assay on TK-10 was > 100 µM (inactive) throughout. The GI50 in the assay with UACC-62 was > 100 µM (inactive).

Turning to `COc1cc2oc3c(c(=O)c2c(O)c1/C=C/C(C)C)C(C=C(C)C)Oc1cc(O)ccc1-3` (configuration not stated), the GI50 with 786-0 was 16.2 µM (inactive); in the assay on CCRF-CEM, 5.53 µM (inactive); in the assay on HCC 2998 it was 12.1 µM (inactive); in the assay with IGROV-1, 13.5 µM (inactive); with KM12, 17.2 µM (inactive); in the assay on LOX IMVI it was 14.2 µM (inactive). The GI50 was 16.9 µM (inactive) in the assay with MDA-N; 14.5 µM (inactive) in the assay with NCI-H460; 15 µM (inactive) in the assay with OVCAR-3; 17 µM (inactive) with OVCAR-5; 14.7 µM (inactive) in the assay with RPMI-8226; 17.1 µM (inactive) in the assay with SF-295. For the same compound, the GI50 was 16.5 µM (inactive) in the assay with SK-MEL-28; 18.5 µM (inactive) in the assay with SK-MEL-5; 16.1 µM (inactive) in the assay on SN12C; 15.3 µM (inactive) in the assay with SNB-75; 16.4 µM (inactive) with TK-10; 17.2 µM (inactive) with UACC-62.
